# From patent US20130281465A1, “PYRAZOLE DERIVATIVE” (TAISHO PHARMACEUTICAL CO., LTD., priority 2010, published 2013)
# Experiments:
# [1] = target: T1, orexin type 2 receptor (hOX2R) (Homo sapiens, UniProt O43614); test: Orexin receptor antagonistic activity, intracellular Ca2+ fluorescence (FDSS) in CHO cells expressing hOX2R; format: cell-based; conditions: CHO cells forced to express hOX2R; orexin-A analogue peptide ligand 3 nM; Fluo-4 maximum fluorescence; read-out: IC50 value OX2R
# T1 construct: expressed in transfected cells; host or cells: Chinese hamster ovary (CHO) cells
# T1 sequence (O43614 1-444): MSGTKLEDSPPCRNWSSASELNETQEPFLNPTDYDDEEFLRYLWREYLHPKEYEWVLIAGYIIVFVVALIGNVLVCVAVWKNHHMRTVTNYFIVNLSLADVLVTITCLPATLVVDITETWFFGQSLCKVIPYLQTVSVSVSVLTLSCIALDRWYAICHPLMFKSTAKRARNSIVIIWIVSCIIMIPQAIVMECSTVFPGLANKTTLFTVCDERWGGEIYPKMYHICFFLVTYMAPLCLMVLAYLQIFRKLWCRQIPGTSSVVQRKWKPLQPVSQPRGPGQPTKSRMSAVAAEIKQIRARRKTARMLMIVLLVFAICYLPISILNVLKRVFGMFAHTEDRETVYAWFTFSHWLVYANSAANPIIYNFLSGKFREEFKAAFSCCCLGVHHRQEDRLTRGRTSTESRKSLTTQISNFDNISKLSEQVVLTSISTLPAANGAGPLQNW
# Protocol: (§1) The antagonistic activity of each test compound against human orexin type 1 receptor (hOX1R) and orexin type 2 receptor (hOX2R) was performed as described in the literature with a modification (Toshikatsu Okumura et al., Biochemical and Biophysical Research Communications 280, 976-981, 2001). Chinese hamster ovary (CHO) cells forced to express hOX1R or hOX2R were seeded at 20,000 cells/well on a 96 well Black clear bottom plates (Nunc) and cultured for 16 hours under conditions of 37° C. and 5% CO2 using a Ham's F-12 medium containing 0.1 mM MEM non-essential amino acids, 0.5 mg/ml G418, and 10% fetal bovine serum (all from Invitrogen Corp.). After removal of the medium, 100 μL of the assay buffer (25 mM HEPES (Dojindo Laboratories), Hanks' balanced salt solution (Invitrogen Corp.), 0.1% bovine serum albumin, 2.5 mM probenecid, 200 μg/ml Amaranth (all from Sigma-Aldrich Corp.), pH 7.4) containing 0.5 μM Fluo-4AM ester (Dojindo Laboratories) was added thereto, and the cells were incubated for 60 minutes under conditions of 37° C. and 5% CO2. After removal of the buffer solution for assay containing Fluo-4AM ester, the test compound was dissolved at a concentration of 10 mM in dimethyl sulfoxide and diluted with the assay buffer, and 150 μL of the diluted solution was then added to each wells, which were then incubated for 30 minutes.
# (§2) A peptide (Pyr-[…]11e-Leu-Thr-Leu-NH2; Peptide Institute, Inc.) substituted 2 amino acids of human orexin-A was diluted with the assay buffer to 300 pM (final concentration for hOX1R) or 3 nM (final concentration for hOX2R). 50 μL of this ligand solution was added thereto to start reaction. During the reaction, the fluorescence value of each well was measured every one second for 3 minutes using Functional Drug Screening System (FDSS; manufactured by Hamamatsu Photonics K.K.), and antagonistic activity was determined with the maximum fluorescence value as an index for intracellular Ca^2+ concentration. The antagonistic activity of the test compound was calculated with the fluorescence value of a well supplemented with only a dilution buffer solution as 100% and the fluorescence value of a well supplemented with a buffer solution containing neither the ligand nor the compound as 0%, and determined in terms of 50% inhibitory concentration (IC50 value) from fluorescence values derived from the test compound added at varying concentrations.
# [2] = target: T2, human orexin type 1 receptor (hOX1R) (Homo sapiens, UniProt O43613); test: Orexin receptor antagonistic activity, intracellular Ca2+ fluorescence (FDSS) in CHO cells expressing hOX1R; format: cell-based; conditions: CHO cells forced to express hOX1R; orexin-A analogue peptide ligand 300 pM; Fluo-4 maximum fluorescence; read-out: IC50 value OX1R
# T2 construct: expressed in transfected cells; host or cells: Chinese hamster ovary (CHO) cells
# T2 sequence (O43613 1-425): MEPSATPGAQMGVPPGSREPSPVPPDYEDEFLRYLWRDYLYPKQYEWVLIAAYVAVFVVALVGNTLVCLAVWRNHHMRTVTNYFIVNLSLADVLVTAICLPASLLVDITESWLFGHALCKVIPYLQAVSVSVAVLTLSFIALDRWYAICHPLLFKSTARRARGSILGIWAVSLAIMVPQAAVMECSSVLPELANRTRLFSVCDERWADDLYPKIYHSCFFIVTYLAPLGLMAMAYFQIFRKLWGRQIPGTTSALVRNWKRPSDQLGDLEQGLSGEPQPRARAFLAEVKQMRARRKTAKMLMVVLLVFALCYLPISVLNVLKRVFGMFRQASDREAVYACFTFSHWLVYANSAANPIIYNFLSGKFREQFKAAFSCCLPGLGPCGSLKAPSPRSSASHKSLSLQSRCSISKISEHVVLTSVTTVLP
# Protocol: as §1, §2
SMILES,IC50 [1] [nM],IC50 [2] [nM]
"CCN(CCn1ccc(-c2cc(C(F)(F)F)ccn2)n1)C(=O)c1cc(C)ccc1-n1nccn1 [Example 60, N-ethyl-5-methyl-2-(2H-1,2,3-triazol-2-yl)-N-(2-{3-[4-(trifluoromethyl)pyridin-2-yl]-1H-pyrazol-1-yl}ethyl)benzamide]",127,21.9
"CCN(CCn1ccc(-c2ccc(F)cn2)n1)C(=O)c1cc(C)ccc1-c1cccnc1 [Example 36, N-ethyl-N-{2-[3-(5-fluoropyridin-2-yl)-1H-pyrazol-1-yl]ethyl}-5-methyl-2-(pyridin-3-yl)benzamide]",58.9,30.6
"Cc1ccc(-n2nccn2)c(C(=O)N(C)CCn2cc(-c3ccc(F)cn3)cn2)c1 [Example 2, N-{2-[4-(5-fluoropyridin-2-yl)-1H-pyrazol-1-yl]ethyl}-N,5-dimethyl-2-(2H-1,2,3-triazol-2-yl)benzamide]",47.3,17.9
"CCN(CCn1cc(-c2ccc(Cl)cn2)cn1)C(=O)c1cc(C)ccc1-n1nccn1 [Example 10, N-{2-[4-(5-chloropyridin-2-yl)-1H-pyrazol-1-yl]ethyl}-N-ethyl-5-methyl-2-(2H-1,2,3-triazol-2-yl)benzamide]",52.6,14.4
"CCN(CCn1cc(-c2ccc(F)cn2)cn1)C(=O)c1ccccc1-c1ncccn1 [Example 37, N-ethyl-N-{2-[4-(5-fluoropyridin-2-yl)-1H-pyrazol-1-yl]ethyl}-2-(pyrimidin-2-yl)benzamide]",301,110
"Cc1ccc(-n2nccn2)c(C(=O)NCCn2cc(-c3ccc(F)cn3)cn2)c1 [Example 1, N-{2-[4-(5-fluoropyridin-2-yl)-1H-pyrazol-1-yl]ethyl}-5-methyl-2-(2H-1,2,3-triazol-2-yl)benzamide]",2390,1040
"CCN(CCn1cc(-c2ccc(F)cn2)cn1)C(=O)c1cc(C)ccc1-c1ncccn1 [Example 15, N-ethyl-N-{2-[4-(5-fluoropyridin-2-yl)-1H-pyrazol-1-yl]ethyl}-5-methyl-2-(pyrimidin-2-yl)benzamide]",88.3,29.8
"CCN(CCn1cc(-c2ccc(F)cn2)cn1)C(=O)c1cc(F)ccc1-n1nccn1 [Example 56, N-ethyl-5-fluoro-N-{2-[4-(5-fluoropyridin-2-yl)-1H-pyrazol-1-yl]ethyl}-2-(2H-1,2,3-triazol-2-yl)benzamide]",95.9,38
"CCN(CCn1ccc(-c2cc(C(F)(F)F)ccn2)n1)C(=O)c1cc(F)ccc1-c1ncccn1 [Example 61, N-ethyl-5-fluoro-2-(pyrimidin-2-yl)-N-(2-{3-[4-(trifluoromethyl)pyridin-2-yl]-1H-pyrazol-1-yl}ethyl)benzamide]",1130,239
"Cc1ccc(-n2nccn2)c(C(=O)N(CCn2ccc(-c3ccc(F)cn3)n2)C2COC2)c1 [Example 31, N-{2-[3-(5-fluoropyridin-2-yl)-1H-pyrazol-1-yl]ethyl}-5-methyl-N-(oxetan-3-yl)-2-(2H-1,2,3-triazol-2-yl)benzamide]",26.9,24.9
"Cc1ccc(-n2nccn2)c(C(=O)N(CCn2ccc(-c3ccc(F)cn3)n2)CC(F)F)c1 [Example 22, N-(2,2-difluoroethyl)-N-{2-[3-(5-fluoropyridin-2-yl)-1H-pyrazol-1-yl]ethyl}-5-methyl-2-(2H-1,2,3-triazol-2-yl)benzamide]",32.5,10.5
"Cc1ccc(-n2nccn2)c(C(=O)N(CCn2ccc(-c3ccc(F)cn3)n2)C(C)C)c1 [Example 27, N-{2-[3-(5-fluoropyridin-2-yl)-1H-pyrazol-1-yl]ethyl}-5-methyl-N-(propan-2-yl)-2-(2H-1,2,3-triazol-2-yl)benzamide]",43.6,20.9

# These reach a lower IC50 [1]. Values come first.
IC50 [1] [nM],IC50 [2] [nM],SMILES
20.3,3.7,"Cc1ccc(-n2nccn2)c(C(=O)N(CCF)CCn2ccc(-c3ccc(F)cn3)n2)c1 [Example 21, N-{2-[3-(5-fluoropyridin-2-yl)-1H-pyrazol-1-yl]ethyl}-5-methyl-N-(2-fluoroethyl)-2-(2H-1,2,3-triazol-2-yl)benzamide]"
15.4,9.8,"Cc1ccc(-n2nccn2)c(C(=O)N(CCn2cc(-c3ccc(F)cn3)cn2)C2CC2)c1 [Example 13, N-cyclopropyl-N-{2-[4-(5-fluoropyridin-2-yl)-1H-pyrazol-1-yl]ethyl}-5-methyl-2-(2H-1,2,3-triazol-2-yl)benzamide]"
8.9,8.4,"CCN(CCn1ccc(-c2ccc(F)cn2)n1)C(=O)c1ccccc1-c1ncccn1 [Example 34, N-ethyl-N-{2-[3-(5-fluoropyridin-2-yl)-1H-pyrazol-1-yl]ethyl}-2-(pyrimidin-2-yl)benzamide]"
7.8,1.5,"CCN(CCn1ccc(-c2ccc(F)c(F)c2)n1)C(=O)c1cc(F)ccc1-c1ncccn1 [Example 53, N-{2-[3-(3,4-difluorophenyl)-1H-pyrazol-1-yl]ethyl}-N-ethyl-5-fluoro-2-(pyrimidin-2-yl)benzamide]"
7.1,2.2,"Cc1ccc(-n2nccn2)c(C(=O)N(C)CCn2cc(-c3ccc(F)cc3)cn2)c1 [Example 3-2, N-{2-[4-(4-fluorophenyl)-1H-pyrazol-1-yl]ethyl}-N,5-dimethyl-2-(2H-1,2,3-triazol-2-yl)benzamide]"
6.6,9,"CCN(CCn1ccc(-c2ccc(F)cn2)n1)C(=O)c1ccccc1-n1nccn1 [Example 32, N-ethyl-N-{2-[3-(5-fluoropyridin-2-yl)-1H-pyrazol-1-yl]ethyl}-2-(2H-1,2,3-triazol-2-yl)benzamide]"
6.3,2.3,"CCN(CCn1cc(-c2ccc(F)cc2)cn1)C(=O)c1cc(C)ccc1-n1nccn1 [Example 7, N-ethyl-N-{2-[4-(4-fluorophenyl)-1H-pyrazol-1-yl]ethyl}-5-methyl-2-(2H-1,2,3-triazol-2-yl)benzamide]"
4.3,1,"CCN(CCn1ccc(-c2ccccn2)n1)C(=O)c1cc(C)ccc1-n1nccn1 [Example 9, N-ethyl-5-methyl-N-{2-[3-(pyridin-2-yl)-1H-pyrazol-1-yl]ethyl}-2-(2H-1,2,3-triazol-2-yl)benzamide]"
2.5,0.9,"CCN(CCn1ccc(-c2ccc(F)cc2)n1)C(=O)c1cc(C)ccc1-n1nccn1 [Example 8, N-ethyl-N-{2-[3-(4-fluorophenyl)-1H-pyrazol-1-yl]ethyl}-5-methyl-2-(2H-1,2,3-triazol-2-yl)benzamide]"
2.2,6.8,"Cc1ccc(-n2nccn2)c(C(=O)N(CCn2ccc(-c3ccc(F)cn3)n2)CC2CC2)c1 [Example 18, N-(cyclopropylmethyl)-N-{2-[3-(5-fluoropyridin-2-yl)-1H-pyrazol-1-yl]ethyl}-5-methyl-2-(2H-1,2,3-triazol-2-yl)benzamide]"
2.2,1.5,"CCN(CCn1ccc(-c2cccc(C)n2)n1)C(=O)c1cc(C)ccc1-n1nccn1 [Example 39, N-ethyl-5-methyl-N-{2-[3-(6-methylpyridin-2-yl)-1H-pyrazol-1-yl]ethyl}-2-(2H-1,2,3-triazol-2-yl)benzamide]"
